We go through 2 compounds from PMC3642319, “Biochemical and Immunological Characterization of Toxoplasma gondii Macrophage Migration Inhibitory Factor” (The Journal of Biological Chemistry, 2013).

One data set deals with T1, HsMIF (Homo sapiens, UniProt P14174).
T1 construct: gene MIF; commercial recombinant human MIF (R&D Systems)
T1 sequence (P14174 2-115): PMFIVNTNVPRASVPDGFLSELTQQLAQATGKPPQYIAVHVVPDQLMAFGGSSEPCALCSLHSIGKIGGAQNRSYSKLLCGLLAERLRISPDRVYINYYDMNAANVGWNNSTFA
Put plainly: dopachrome tautomerase assay, absorbance at […] nm. The data set is classed as biochemical.

The subject of data set [1] is COC(=O)[C@@H]1CC2=CC(=O)C(=O)C=C2N1. The experiment in a line: purified protein. The conditions noted are these: L-DOPA methyl ester (1-20 mM) oxidised in situ with sodium periodate, sodium phosphate pH 6.2, 1 mM EDTA, 37 °C, paper names the substrate L-DOPA methyl ester.

Regarding `COC(=O)CC1CC(c2ccc(O)cc2)=NO1` (racemic) [ISO-1], at 10 µM the inhibition against HsMIF was 60%.

Regarding TgMIF (Toxoplasma gondii), the Michaelis-Menten constant (Km) in data set [1] is 9.6 mM.

The term inhibition denotes how much of the control response was suppressed. Higher therefore signals strong suppression. In general, Km refers to the substrate concentration at which the rate is half of its maximum.
